Molecules are shown by their SMILES. Values after ≈ are worked out from the molar mass of the structure shown. Like-named read-outs stand apart in the source and are kept apart here. A value given as a limit tells only on which side of the number the result lay.

What all share (format): cell-based
Test [1] has as its system Staphylococcus aureus, MRSA (ATCC 33591). The test is described as follows: Antibacterial MIC assay (microbroth dilution, CLSI). As to conditions: read-out: MIC Staphylococcus aureus, MRSA (ATCC 33591). The gist of the method:
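Compound 2-fold dilution series tested against 5×10^5 CFU/mL bacteria prepared from 0.5 McFarland saline suspensions of overnight colonies. Medium was cation-adjusted Mueller-Hinton broth, supplemented with 3% lysed horse blood for the fastidious pneumococcus. Protocol followed CLSI M07-A10 and M100-S25.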
On the technique in general: Dilution methods test growth across graded concentrations, often in twofold steps.

The subject of test [2] is Wolbachia pipientis in C6/36 cell line. The test is described as follows: Anti-Wolbachia high-content assay. The settings on record: C6/36 (wAlbB) cells, 7 days at 26° C., 50% reduction of Wolbachia, read-out: EC50 Wolbachia pipientis in C6/36 cell line. How it is done:
After 15 minutes, all media was removed from each well and fresh media (no stain) was added. Imaging of each well was accomplished using a Perkin Elmer Operetta high-content imaging system. Five fields per well were imaged using a confocal 60× objective with the Fluorescein filter (excitation filter: 460-490 nm; emission filter: 500-550 nm). Images were analyzed using the Perkin Elmer Harmony software to score each intact cell on the basis of texture complexity of the cytoplasm. Full details can be found in: […]. et al, J. Biomol.

For test [3], the system named is Streptococcus pneumoniae (ATCC 49619). The test is described as follows: Antibacterial MIC assay (microbroth dilution, CLSI). In a few lines: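 S. pneumoniae at 5×10^5 CFU/mL (from 0.5 McFarland saline suspension) was tested against 2-fold serial compound dilutions in cation-adjusted Mueller-Hinton broth plus 3% lysed horse blood, per CLSI M07-A10/M100-S25 microdilution guidelines.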

The mark [4] stands for this setting: microbroth dilution, cation-adjusted Mueller-Hinton broth, 35° C. for 16-20 hours.
Setting [5] is: ATCC49619, microbroth dilution, 3% lysed horse blood, 35° C. for 16-20 hours, read-out: MIC Streptococcus pneumoniae (ATCC 49619).
Where [6] appears, read: ATCC49619, read-out: MIC Streptococcus pneumoniae (ATCC 49619).

In the case of `C=C[C@]1(C)C[C@@H](OC(=O)COc2ccc3c(c2F)B(O)N(S(C)(=O)=O)N=C3)[C@]2(C)[C@H](C)CC[C@]3(C[C@H](F)C(=O)[C@H]32)[C@@H](C)[C@@H]1O` [Compound 76, (2S,3aR,4R,5R,7S,8S,9R,9aS,12R)-2-fluoro-8-hydroxy-4,7,9,12-tetramethyl-3-oxo-7-vinyldecahydro-4,9a-propanocyclopenta[8]annulen-5-yl 2-((8-fluoro-1-hydroxy-2-(methylsulfonyl)-1,2-dihydrobenzo[d][1,2,3]diazaborinin-7-yl)oxy)acetate], the minimum inhibitory concentration (MIC) in test [1] (setting [4]) and in test [3] (setting [5]) was 0.5 to 2 µg/mL (≈ 0.786 to 3.14 µM) each time. Also, the EC50 in test [2] was over 1000 nM.
Turning to `C=C[C@]1(C)C[C@@H](OC(=O)COc2ccc3c(c2)B(O)N(C)N=C3)[C@]2(C)[C@H](C)CC[C@]3(C[C@H](O)C(=O)[C@H]32)[C@@H](C)[C@@H]1O` [Compound 82, (2S,3aR,4R,5R,7S,8S,9R,9aS,12R)-2,8-dihydroxy-4,7,9,12-tetramethyl-3-oxo-7-vinyldecahydro-4,9a-propanocyclopenta[8]annulen-5-yl 2-((1-hydroxy-2-methyl-1,2-dihydrobenzo[d][1,2,3]diazaborinin-7-yl)oxy)acetate], the MIC in test [1] (setting [4]) was 0.5 to 2 µg/mL (≈ 0.905 to 3.62 µM); in test [3] (setting [5]), under 0.25 µg/mL. For the same compound, the EC50 in test [2] amounted to 36 nM.
The corresponding values for `C=C[C@]1(C)C[C@@H](OC(=O)COc2ccc3c(c2)B(O)OC3)[C@]2(C)[C@H](C)CC[C@]3(C[C@H](O)C(=O)[C@H]32)[C@@H](C)[C@@H]1O` [Compound 35, (2S,3aR,4R,5R,7S,8S,9R,9aS,12R)-2,8-dihydroxy-4,7,9,12-tetramethyl-3-oxo-7-vinyldecahydro-4,9a-propanocyclopenta[8]annulen-5-yl 2-((1-hydroxy-1,3-dihydrobenzo[c][1,2]oxaborol-6-yl)oxy)acetate] are under 0.25 µg/mL, 0.5 to 2 µg/mL (≈ 0.95 to 3.8 µM) and 30 nM.
On the same counts, the results for `C=C[C@]1(C)C[C@@H](OC(=O)COc2ccc3c(c2)B(O)N(C(=O)OC)N=C3)[C@]2(C)[C@H](C)CC[C@]3(C[C@H](O)C(=O)[C@H]32)[C@@H](C)[C@@H]1O` [Compound 90, Methyl 7-(2-(((2S,3aR,4R,5R,7S,8S,9R,9aS,12R)-2,8-dihydroxy-4,7,9,12-tetramethyl-3-oxo-7-vinyldecahydro-4,9a-propanocyclopenta[8]annulen-5-yl)oxy)-2-oxoethoxy)-1-hydroxybenzo[d][1,2,3]diazaborinine-2(1H)-carboxylate] are under 0.25 µg/mL, 0.5 to 2 µg/mL (≈ 0.838 to 3.35 µM) and 3 nM.
On the same counts, the results for `C=C[C@]1(C)C[C@@H](OC(=O)COc2ccc3c(c2)B(O)N(C(C)=O)N=C3)[C@]2(C)[C@H](C)CC[C@]3(C[C@H](O)C(=O)[C@H]32)[C@@H](C)[C@@H]1O` [Compound 86, (2S,3aR,4R,5R,7S,8S,9R,9aS,12R)-2,8-dihydroxy-4,7,9,12-tetramethyl-3-oxo-7-vinyldecahydro-4,9a-propanocyclopenta[8]annulen-5-yl 2-((2-acetyl-1-hydroxy-1,2-dihydrobenzo[d][1,2,3]diazaborinin-7-yl)oxy)acetate] are under 0.25 µg/mL, 0.5 to 2 µg/mL (≈ 0.861 to 3.45 µM) and 1 nM.
For `C=C[C@]1(C)C[C@@H](OC(=O)COc2cc3c(cn2)COB3O)[C@]2(C)[C@H](C)CC[C@]3(CCC(=O)[C@H]32)[C@@H](C)[C@@H]1O` [Compound 100, (3aR,4R,5R,7S,8S,9R,9aS,12R)-8-hydroxy-4,7,9,12-tetramethyl-3-oxo-7-vinyldecahydro-4,9a-propanocyclopenta[8]annulen-5-yl 2-((1-hydroxy-1,3-dihydro-[1,2]oxaborolo[4,3-c]pyridin-6-yl)oxy)acetate], the MIC in test [1] (setting [4]) is over 64 µg/mL. In addition, in test [2], the EC50 is over 1000 nM.
Take `C=C[C@]1(C)C[C@@H](OC(=O)COc2cnc3c(c2)B(O)OC3)[C@]2(C)[C@H](C)CC[C@]3(CCC(=O)[C@H]32)[C@@H](C)[C@@H]1O` [Compound 101, (3aR,4R,5R,7S,8S,9R,9aS,12R)-8-hydroxy-4,7,9,12-tetramethyl-3-oxo-7-vinyldecahydro-4,9a-propanocyclopenta[8]annulen-5-yl 2-((1-hydroxy-1,3-dihydro-[1,2]oxaborolo[4,3-b]pyridin-6-yl)oxy)acetate]: the MIC in test [1] (setting [4]) was in the range of 0.5 to 2 µg/mL (≈ 0.978 to 3.91 µM); in test [3] (setting [5]) it was 4 to 32 µg/mL (≈ 7.82 to 62.6 µM). In addition, the EC50 in test [2] was over 1000 nM.
Consider `C=C[C@]1(C)C[C@@H](OC(=O)COc2ccc3c(c2)B(O)OC3CN(C)C)[C@]2(C)[C@H](C)CC[C@]3(CCC(=O)[C@H]32)[C@@H](C)[C@@H]1O` (stereo partly drawn) [Compound 27, (3aR,4R,5R,7S,8S,9R,9aS,12R)-8-hydroxy-4,7,9,12-tetramethyl-3-oxo-7-vinyldecahydro-4,9a-propanocyclopenta[8]annulen-5-yl 2-((3-((dimethylamino)methyl)-1-hydroxy-1,3-dihydrobenzo[c][1,2]oxaborol-6-yl)oxy)acetate], for which the minimum inhibitory concentration (MIC) in test [1] (setting [4]) and in test [3] (setting [5]) was under 0.25 µg/mL each time. The EC50 in test [2] is 27 nM.
Regarding `C=C[C@]1(C)C[C@@H](OC(=O)COc2cc3c(cc2OC)COB3O)[C@]2(C)[C@H](C)CC[C@]3(CCC(=O)[C@H]32)[C@@H](C)[C@@H]1O` [Compound 15, (3aR,4R,5R,7S,8S,9R,9aS,12R)-8-hydroxy-4,7,9,12-tetramethyl-3-oxo-7-vinyldecahydro-4,9a-propanocyclopenta[8]annulen-5-yl 2-((1-hydroxy-5-methoxy-1,3-dihydrobenzo[c][1,2]oxaborol-6-yl)oxy)acetate], the minimal inhibitory concentration (MIC) in test [1] (setting [4]) and in test [3] (setting [5]) was under 0.25 µg/mL in each case.
For the compound `C=C[C@]1(C)C[C@@H](OC(=O)COc2ccc3c(c2)B(O)ON=C3)[C@]2(C)[C@H](C)CC[C@]3(CCC(=O)[C@H]32)[C@@H](C)[C@@H]1O` [Compound 96, (3aR,4R,5R,7S,8S,9R,9aS,12R)-8-hydroxy-4,7,9,12-tetramethyl-3-oxo-7-vinyldecahydro-4,9a-propanocyclopenta[8]annulen-5-yl 2-((1-hydroxy-1H-benzo[d][1,2,6]oxazaborinin-7-yl)oxy)acetate], the minimal inhibitory concentration (MIC) in test [1] is under 0.25 µg/mL; in test [3] (setting [6]), 0.5 to 2 µg/mL (≈ 0.955 to 3.82 µM).
On the same counts, the results for `C=C[C@]1(C)C[C@@H](OC(=O)CS(=O)(=O)c2ccc3c(c2)B(O)OC3)[C@]2(C)[C@H](C)CC[C@]3(CCC(=O)[C@H]32)[C@@H](C)[C@@H]1O` [Compound 64, (3aR,4R,5R,7S,8S,9R,9aS,12R)-8-hydroxy-4,7,9,12-tetramethyl-3-oxo-7-vinyldecahydro-4,9a-propanocyclopenta[8]annulen-5-yl 2-((1-hydroxy-1,3-dihydrobenzo[c][1,2]oxaborol-6-yl)sulfonyl)acetate] are under 0.25 µg/mL and 0.5 to 2 µg/mL (≈ 0.895 to 3.58 µM).
On the same counts, the results for `C=C[C@]1(C)C[C@@H](OC(=O)COc2cc(F)c3c(c2)B(O)OC3)[C@]2(C)[C@H](C)CC[C@]3(CCC(=O)[C@H]32)[C@@H](C)[C@@H]1O` [Compound 4, (3aR,4R,5R,7S,8S,9R,9aS,12R)-8-hydroxy-4,7,9,12-tetramethyl-3-oxo-7-vinyldecahydro-4,9a-propanocyclopenta[8]annulen-5-yl 2-((4-fluoro-1-hydroxy-1,3-dihydrobenzo[c][1,2]oxaborol-6-yl)oxy)acetate] are under 0.25 µg/mL and 0.5 to 2 µg/mL (≈ 0.946 to 3.78 µM).
`C=C[C@]1(C)C[C@@H](OC(=O)COc2cc3c(c(C4CCNCC4)c2)COB3O)[C@]2(C)[C@H](C)CC[C@]3(CCC(=O)[C@H]32)[C@@H](C)[C@@H]1O` [Compound 18, (3aR,4R,5R,7S,8S,9R,9aS,12R)-8-hydroxy-4,7,9,12-tetramethyl-3-oxo-7-vinyldecahydro-4,9a-propanocyclopenta[8]annulen-5-yl 2-((1-hydroxy-4-(piperidin-4-yl)-1,3-dihydrobenzo[c][1,2]oxaborol-6-yl)oxy)acetate]: the MIC in test [1] (setting [4]) fell in the range of 0.5 to 2 µg/mL (≈ 0.842 to 3.37 µM). The EC50 in test [2] was over 1000 nM.
For the compound `C=C[C@]1(C)C[C@@H](OC(=O)CSc2ccc3c(c2F)B(O)OC3)[C@]2(C)[C@H](C)CC[C@]3(CCC(=O)[C@H]32)[C@@H](C)[C@@H]1O` [Compound 65, (3aR,4R,5R,7S,8S,9R,9aS,12R)-8-hydroxy-4,7,9,12-tetramethyl-3-oxo-7-vinyldecahydro-4,9a-propanocyclopenta[8]annulen-5-yl 2-((7-fluoro-1-hydroxy-1,3-dihydrobenzo[c][1,2]oxaborol-6-yl)thio)acetate], the figures for the MIC in test [1] and in test [3] (setting [6]) were under 0.25 µg/mL and 0.5 to 2 µg/mL (≈ 0.918 to 3.67 µM), respectively.
Take `C=C[C@]1(C)C[C@@H](OC(=O)CNc2cc3c(cc2CN)COB3O)[C@]2(C)[C@H](C)CC[C@]3(CCC(=O)[C@H]32)[C@@H](C)[C@@H]1O` [Compound 47, (3aR,4R,5R,7S,8S,9R,9aS,12R)-8-hydroxy-4,7,9,12-tetramethyl-3-oxo-7-vinyldecahydro-4,9a-propanocyclopenta[8]annulen-5-yl (5-(aminomethyl)-1-hydroxy-1,3-dihydrobenzo[c][1,2]oxaborol-6-yl)glycinate]: the minimum inhibitory concentration (MIC) in test [1] (setting [4]) was in the range of 0.5 to 2 µg/mL (≈ 0.929 to 3.71 µM); in test [3] (setting [5]), 4 to 32 µg/mL (≈ 7.43 to 59.4 µM).

By MIC is commonly meant the lowest concentration found to suppress growth.

The values above are taken from US10919916B2, “Boron-containing small molecules” (Bill & Melinda Gates Foundation, priority 2016, dated 2021).
